From article PMC6104039 (Nature Communications, 2018) come the findings set out here.

In general, half-life refers to the time needed for the level to fall by half in the phase considered. Read a low half-life as fast loss.

Data set [1] is described as follows: Plasma P053 concentration after oral dosing, LC-MS/MS. It is filed as in vivo, mice. The protocol: Plasma samples (20 μL) were extracted with 200 μL methanol containing 20 pmoles AAL(S)[27] as the internal standard. The mixtures were vortexed, then sonicated in ice water using a Bioruptor (Diagenode) for 2 min at 30 s intervals. Extracts were centrifuged at 1400 rpm for 20 min, 4 °C, to clear debris. Supernatants were transferred to 5 mL glass tubes. The remaining insoluble material was re-extracted with 1 mL 80% methanol as above, and the supernatant combined with the first extract. The extracts were evaporated under vacuum (Savant SC210 SpeedVac, Thermo Scientific). Dried extracts were reconstituted in 200 μL of 80% methanol/0.2% formic acid and stored at −20 °C. On the day of analysis, the extracts were vortexed thoroughly and centrifuged at 300 × g for 20 min before transferring 100 μL of the supernatant to glass HPLC vials.
(§1) LC-MS/MS was performed on a TSQ Quantum Access triple quadrupole mass spectrometer in positive ion mode, coupled to an Accela UPLC system (Thermo Scientific). Extracts (20 μL) were separated on a 2 × 100 mm Eclipse XDB-C8 column with 1.8 μm particle size (Agilent Technologies), using a 7.5 min binary HPLC gradient: 0 min, 70% B ([…]); 1.5 min, 70% B; 3.5 min, 95% B; 4 min, 95% B; 4.5 min, 70% B; 7.5 min 70% B. Mobile phase A: 2 mM ammonium formate/1% formic acid in water; mobile phase B: 1 mM ammonium formate/1% formic acid in methanol. The flow rate was 0.4 mL min^−1, increasing to 0.5 mL min^−1 from 5–7 min, and column oven 30 °C. […] Visualisation and quantification of peaks was performed using Thermo Fisher’s XCalibur software v2.2.

Another data set relates to soleus muscles. Description: 14C-palmitate oxidation and incorporation into TAG in isolated soleus muscles of treated mice. It is filed as in vivo. The protocol:
After a 30 min pre-incubation, muscles were transferred into vials containing 0.5 mCi/mL of [1-^14C]-palmitate in modified Krebs-Henseleit buffer for another 1 h. The reaction was stopped by removal of the muscles and addition of 1 M perchloric acid to the reaction mixture. ^14C-labelled CO2 was quantified as described above. The muscles were blotted dry and snap frozen in liquid nitrogen for subsequent lipid extraction and TLC. Muscles were homogenized using a Polytron (Kinematica, Littau-Lucerne, Switzerland) in 1.5 mL 2:1 chloroform-methanol (v/v). […] The upper aqueous phase was used to quantify ASM, and the lower organic phase was collected and dried under stream of N2, then reconstituted in hexane and spotted on a Silica Gel 60 F254 TLC plate. The TLC plate was developed in hexane/diethyl ether/glacial acetic acid (85:15:1), then air dried. TAG bands were visualised using iodine vapour staining, using an external standard to mark their position, then scraped into vials and quantified by liquid scintillation counting.

For a further data set, the system named is C57BL6/J mice. The data set can be described thus: Body composition (EchoMRI) and fat pad weights in mice on chow or HFD. It is filed as in vivo. The protocol: Male C57BL6/J mice were obtained from the Animal Resources Centre in Perth (WA, Australia). […] Treatment was commenced at the same time as mice were randomised to dietary groups. The experiments were approved by the UNSW animal care and ethics committee (ACEC 15/48B), and followed guidelines issued by the National Health and Medical Research Council of Australia.
Body composition (lean mass and fat mass) was determined by EchoMRI-900 Body Composition Analyser (EchoMRI Corporation Pte Ltd, Singapore) in accordance with the manufacturer’s instructions.

The next data set has as its system SkM homogenates. Description: 14C-palmitate oxidation in SkM homogenates of treated mice. To be noted: chow and HFD-fed mice, 6 weeks. It is filed as in vivo. On the procedure:
Tibialis muscles were homogenized in 19 volumes of 250 mM sucrose, 10 mM Tris-HCl and 1 mM EDTA, pH 7.4.

Data set [2] has as its system permeabilised extensor digitorum longus muscle fibres. Description: Respiratory complex activities in permeabilized extensor digitorum longus muscle fibres. The following applies: three weeks, 5 mg/kg. It is filed as in vivo, mice. On the procedure: Permeabilized extensor digitorum longus (EDL) fibres were prepared and mitochondrial function analyzed according to published protocols with some modifications[71],[72]. Briefly, EDL muscles were dissected tendon-to-tendon into ice-cold isolation buffer A (10 mM Ca-EGTA buffer, 20 mM imidazole, 20 mM taurine, 49 mM K-MES, 3 mM K2HPO4, 9.5 mM MgCl2, 5.7 mM ATP, 15 mM phosphocreatine, 1 μM leupeptin, pH 7.1) and fibres were prepared immediately. Fibre bundles (~3 mg wet weight) were treated with saponin (50 μg/mL) for 20 min at 4 °C and subsequently washed in cold respiration medium B (0.5 mM EGTA, 3 mM MgCl2.6H2O, 20 mM taurine, 10 mM KH2PO4, 20 mM HEPES, 0.1% BSA, 15 mM potassium-lactobionate, 110 mM mannitol, 0.3 mM dithiothreitol, pH 7.1). […] Fibres were recovered after polarography and results were expressed as nmoles of O2/min/mg of tissue. Mitochondrial membrane integrity was verified by cytochrome c release test[71],[72].

The next data set has as its system HEK293 cells. Description: Non-viable cells by propidium iodide staining and flow cytometry, 72 h. To be noted: at or below 1 μM. It is filed as cell-based. The protocol: Lipid levels are expressed as a percentage of vehicle control levels. […] All graphs show combined data from two independent experiments, each with 3 (a) or 4 (b-d) separate cell treatments, mean ± SEM. Statistical significance in (b-d) was determined by t-tests adjusted for multiple comparisons, comparing all lipids (22 lipids tested in total) at each concentration to the control group; ^+P < 0.05; ^#P < 0.01; *P < 0.001

A short description of data set [3]: Detection of P053-phosphate in plasma of dosed mice, LC-MS/MS. To be noted: 5 mg/kg/day for 6 weeks. It is filed as in vivo. On the procedure:
as §1
Supplementary Figure 8. P053 is not phosphorylated in situ or in vivo. (a-b) HEK293 cells […]
LC-MS/MS analysis. Chromatograms for (a) FTY720 and its phosphate, and (b) P053 and its putative phosphate are shown. […]
mg/kg/day for 6 weeks, corresponding to a plasma concentration of ~300 nM. No peak is […]
(§2) (1 picture or pasted object on this page, not shown here)

In data set [4] the test system is cultured primary myotubes. The data set can be described thus: Ceramide content of cultured primary myotubes. It is filed as cell-based, murine. To be noted: 1 μM.
Text: myotubes would go a long way in making the muscle component of this work more […]
Response: We agree with the reviewer that experiments in muscle cells often allow additional mechanistic studies to be undertaken. We investigated this possibility in immortalised and primary […]
where C18:0 ceramide is by the far the dominant ceramide species, cultured muscle cells contain much higher levels of other ceramides, particularly C16:0 (see figure below). This divergence in ceramide profile between cultured myotubes and muscle tissue in vivo has been reported by other […]
C18:0 ceramide content in cultured primary myotubes by ~30% (P = 0.02), whilst having no […]
profile of skeletal muscle, CerS1 inhibition experiments with myotubes would have limited translatability to the in vivo setting.
as §2

Molecules are shown by their SMILES. “Also recorded” adds a separate entry of the source.

In turn, `C[C@@](N)(CO)CCc1ccc(OCc2ccc(Cl)c(Cl)c2)cc1` [P053, (S)-2-amino-4-(4-(3,4-dichlorobenzyloxy)phenyl)-2-methylbutan-1-ol] registered a concentration at 6 weeks in data set [1] (C57BL6/J, mouse, plasma, oral, 5 mg/kg/day for 6 weeks) of about 300 nM. For the same compound, the half-life in data set [1] (C57BL6/J, mouse, plasma, single 5 mg/kg dose by oral gavage) was 28 h. In addition, the Tmax in data set [1] (C57BL6/J, mouse, plasma, single 5 mg/kg dose by oral gavage, read-out: time of maximal plasma concentration) was 4 h. The compound also gave a maximal plasma concentration in data set [1] (single 5 mg/kg dose by oral gavage) of 20 nM. The “oxidation of 14C-palmitate in soleus muscles” value in the data set on soleus muscles (2 weeks, 5 mg/kg) is “significantly increased”. Further, the “incorporation of 14C-palmitate into TAG” value with soleus muscles (2 weeks, 5 mg/kg, 1 h incubation) is “unchanged”. The “increase of the rate of palmitate oxidation in muscle” value in the data set on soleus muscles (P053 treatment) is on record as 23%. Further, the “whole-body fat mass and weight of individual white adipose depots” value in the data set with C57BL6/J mice (HFD, 5 mg/kg, 4–6 weeks) is recorded as “significantly reduced”. The “reduction of the gain in fat pad mass on a HFD” value with C57BL6/J mice (both fat pads (inguinal and epididymal)) was determined as 44%. Moreover, in the data set on C57BL6/J mice (with P053 treatment), the “gain in epididymal fat pad weight, HFD compared to chow” value is given as 0.29 g and the “gain in inguinal fat pad weight, HFD compared to chow” value was 0.15 g. Further, the “oxidation of 14C-palmitate in muscle homogenates” value in the data set with SkM homogenates was “increased oxidation”. For the same compound, in data set [2], the “complex II activity” value is given as “trend for an increase”; the “respiratory activity with complex I and IV substrates” value is “significant increase”. Also, the HEK293 cell viability entry with HEK293 cells is reported as “no effect”. Moreover, in data set [3], the “phosphate of the compound in plasma of mice” value is recorded as “only background signal is detected; also recorded: not detected”. In addition, the “reduction of C18:0 ceramide content” value in data set [4] is listed as ~ 30%.
